In US20250270209A1 (INTERLINE THERAPEUTICS, INC., priority 2022, published 2025):

Legend:
LRRK2 wild type enzyme = LRRK2 wild type enzyme (Homo sapiens, UniProt Q5S007); test: Biochemical Assay: LRRK2 TR-FRET (LanthaScreen) kinase assay with LRRKtide substrate; details: LRRK2 Inhibition, Table 8
In short: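 TR-FRET detection (Tb-labelled phospho-LRRKtide antibody, EDTA stop, 30 min) followed a 120 min, 23 °C reaction of 3 nM wild-type human LRRK2 with LRRKtide (400 nM) and ATP (25 μM) in Tris pH 8.0. Compounds: 11-point 3-fold series from 10 μM, 15 min enzyme preincubation.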

[1] = target: T1, wild type LRRK2 overexpressed in recombinant HEK-293T cells (Homo sapiens, UniProt Q5S007); test: pS935 LRRK2 Cell Assay (HTRF, phospho-LRRK2 Ser935); type: cell-based; details: LRRK2 Inhibition, Table 8, 2 hours compound incubation
T1 construct: host or cells: HEK293T (transient transfection with pCMV-LRRK2 WT plasmid)
In short: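 Phospho-Ser935 LRRK2 measured by two-antibody HTRF (Eu-cryptate donor, d2 acceptor; 665/615 nm ratio) after overnight detection at 23° C. Before lysis, transiently LRRK2-transfected HEK-293T cells were exposed 2 h at 37° C to a 9-point, 3-fold series from 10 μM, with DMSO at 0.2%.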

LRRK2 wild type enzyme, sequence (Q5S007 whole entry): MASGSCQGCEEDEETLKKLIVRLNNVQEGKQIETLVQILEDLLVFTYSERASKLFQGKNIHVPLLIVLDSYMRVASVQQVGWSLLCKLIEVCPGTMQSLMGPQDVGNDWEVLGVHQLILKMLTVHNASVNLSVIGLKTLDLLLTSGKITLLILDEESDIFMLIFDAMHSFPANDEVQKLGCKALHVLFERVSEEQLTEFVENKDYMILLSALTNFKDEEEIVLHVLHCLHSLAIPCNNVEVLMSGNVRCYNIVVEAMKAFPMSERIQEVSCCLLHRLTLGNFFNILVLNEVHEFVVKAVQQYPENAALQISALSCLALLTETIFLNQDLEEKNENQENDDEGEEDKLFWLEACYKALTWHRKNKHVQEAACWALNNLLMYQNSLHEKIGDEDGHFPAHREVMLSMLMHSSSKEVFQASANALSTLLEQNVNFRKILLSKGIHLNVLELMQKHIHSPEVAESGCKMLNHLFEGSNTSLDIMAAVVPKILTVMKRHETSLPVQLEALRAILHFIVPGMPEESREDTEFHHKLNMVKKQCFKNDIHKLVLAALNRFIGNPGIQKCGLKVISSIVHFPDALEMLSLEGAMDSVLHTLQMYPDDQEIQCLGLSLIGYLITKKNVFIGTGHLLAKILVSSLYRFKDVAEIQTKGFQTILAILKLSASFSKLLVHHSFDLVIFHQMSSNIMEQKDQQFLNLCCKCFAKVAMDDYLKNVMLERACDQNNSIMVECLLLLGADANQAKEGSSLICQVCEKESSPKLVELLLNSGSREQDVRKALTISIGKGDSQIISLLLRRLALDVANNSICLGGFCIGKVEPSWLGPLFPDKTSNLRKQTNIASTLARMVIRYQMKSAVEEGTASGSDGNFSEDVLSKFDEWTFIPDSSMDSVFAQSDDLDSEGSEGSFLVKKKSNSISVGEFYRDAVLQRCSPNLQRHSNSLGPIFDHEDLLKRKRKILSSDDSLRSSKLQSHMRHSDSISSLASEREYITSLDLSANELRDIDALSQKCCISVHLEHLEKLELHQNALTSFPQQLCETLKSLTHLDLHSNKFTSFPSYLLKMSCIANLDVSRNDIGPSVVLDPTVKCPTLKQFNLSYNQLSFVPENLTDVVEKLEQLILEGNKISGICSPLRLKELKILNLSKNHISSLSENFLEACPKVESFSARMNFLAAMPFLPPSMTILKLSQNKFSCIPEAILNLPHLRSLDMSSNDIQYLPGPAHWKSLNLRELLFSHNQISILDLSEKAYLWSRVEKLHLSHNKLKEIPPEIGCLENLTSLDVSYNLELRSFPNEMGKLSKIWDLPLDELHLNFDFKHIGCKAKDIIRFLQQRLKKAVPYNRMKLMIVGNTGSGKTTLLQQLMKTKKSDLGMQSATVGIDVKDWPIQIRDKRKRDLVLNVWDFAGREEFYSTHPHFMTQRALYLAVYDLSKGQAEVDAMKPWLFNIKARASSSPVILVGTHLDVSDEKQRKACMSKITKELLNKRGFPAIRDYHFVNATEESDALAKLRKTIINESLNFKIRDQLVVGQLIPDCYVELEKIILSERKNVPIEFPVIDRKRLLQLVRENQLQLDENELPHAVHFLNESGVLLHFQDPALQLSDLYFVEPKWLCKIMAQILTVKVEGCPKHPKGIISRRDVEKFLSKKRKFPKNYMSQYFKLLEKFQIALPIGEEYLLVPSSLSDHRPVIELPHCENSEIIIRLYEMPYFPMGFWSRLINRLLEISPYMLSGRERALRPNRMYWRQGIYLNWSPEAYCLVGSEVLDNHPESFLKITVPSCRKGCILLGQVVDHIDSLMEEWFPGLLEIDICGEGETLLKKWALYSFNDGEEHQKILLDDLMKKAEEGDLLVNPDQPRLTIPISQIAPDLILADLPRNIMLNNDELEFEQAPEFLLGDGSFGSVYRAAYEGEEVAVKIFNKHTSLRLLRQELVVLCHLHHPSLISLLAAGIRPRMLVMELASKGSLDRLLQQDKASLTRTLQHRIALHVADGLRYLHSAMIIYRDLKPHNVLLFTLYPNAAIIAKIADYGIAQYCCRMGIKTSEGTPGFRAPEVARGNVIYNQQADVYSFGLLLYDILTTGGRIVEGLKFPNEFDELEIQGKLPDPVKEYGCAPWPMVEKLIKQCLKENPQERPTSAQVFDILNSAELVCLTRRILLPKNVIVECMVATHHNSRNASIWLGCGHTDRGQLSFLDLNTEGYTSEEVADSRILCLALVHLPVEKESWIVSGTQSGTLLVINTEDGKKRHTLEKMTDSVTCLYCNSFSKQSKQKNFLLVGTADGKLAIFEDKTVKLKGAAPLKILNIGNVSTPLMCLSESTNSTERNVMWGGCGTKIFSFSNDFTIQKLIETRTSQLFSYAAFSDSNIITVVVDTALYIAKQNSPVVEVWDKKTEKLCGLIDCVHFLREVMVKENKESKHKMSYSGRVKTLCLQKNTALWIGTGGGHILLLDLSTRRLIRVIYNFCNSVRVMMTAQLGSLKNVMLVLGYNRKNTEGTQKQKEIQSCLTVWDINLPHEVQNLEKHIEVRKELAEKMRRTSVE
T1 sequence (Q5S007 whole entry): as above

In the case of `COCCNC(=O)Cc1nc2cnc3ccc(Cl)cc3c2n1[C@@H]1CCO[C@H](C)C1` [Compound 164, 2-{8-chloro-1-[(2R,4R)-2-methyloxan-4-yl]-1H-imidazo[4,5-c]quinolin-2-yl}-N-(2-methoxyethyl)acetamide], the IC50 (LRRK2 wild type enzyme) is reported as 0.369 nM and the IC50 [1] is reported as 15.2 nM.
`C[C@@H]1C[C@H](n2c(CC(=O)N[C@H](C)c3ccccn3)nc3cnc4ccc(C#N)cc4c32)CCO1` [Compound 190, 2-{8-cyano-1-[(2R,4R)-2-methyloxan-4-yl]-1H-imidazo[4,5-c]quinolin-2-yl}-N-[(1R)-1-(pyridin-2-yl)ethyl]acetamide] gave an IC50 (LRRK2 wild type enzyme) of 0.696 nM and an IC50 [1] of 18.7 nM.
For `Cc1nn(C)c(C)c1NC(=O)Cc1nc2cnc3ccc(C#N)cc3c2n1[C@@H]1CCO[C@H](C)C1` [Compound 187, 2-{8-cyano-1-[(2R,4R)-2-methyloxan-4-yl]-1H-imidazo[4,5-c]quinolin-2-yl}-N-(1,3,5-trimethyl-1H-pyrazol-4-yl)acetamide], the IC50 (LRRK2 wild type enzyme) was 0.241 nM and the IC50 [1] was 9.47 nM.
For `C[C@@H]1C[C@H](n2c(CC(=O)NC3CCOCC3)nc3cnc4ccc(Cl)cc4c32)CCO1` [Compound 192, 2-{8-chloro-1-[(2R,4R)-2-methyloxan-4-yl]-1H-imidazo[4,5-c]quinolin-2-yl}-N-(oxan-4-yl)acetamide], the IC50 (LRRK2 wild type enzyme) was 0.385 nM and the IC50 [1] was 13.3 nM.
Work on `C[C@@H]1C[C@H](n2c(CC(=O)Nc3cnn(C)c(=O)c3)nc3cnc4ccc(C#N)cc4c32)CCO1` [Compound 264, N-(1-methyl-6-oxo-1,6-dihydro-4-pyridazinyl){3-[(2R,4R)-2-methyltetrahydro-2H-pyran-4-yl]-12-cyano-3,5,8-triazatricyclo[7.4.0.0^2,6]trideca-1,4,6,8,10,12-hexaen-4-yl}acetamide] yielded an IC50 (LRRK2 wild type enzyme) of 0.486 nM and an IC50 [1] of 74.4 nM.
`C[C@@H]1C[C@H](n2c(CC(=O)Nc3nccs3)nc3cnc4ccc(C#N)cc4c32)CCO1` [Compound 335, N-(1,3-thiazol-2-yl){3-[(2R,4R)-2-methyltetrahydro-2H-pyran-4-yl]-12-cyano-3,5,8-triazatricyclo[7.4.0.0^2,6]trideca-1(9),2(6),4,7,10,12-hexaen-4-yl}acetamide] was tested, and the IC50 (LRRK2 wild type enzyme) was 0.433 nM and the IC50 [1] was 4.06 nM.
With `C[C@@H]1C[C@H](n2c(CC(=O)NC3(C(F)(F)F)CC3)nc3cnc4ccc(C#N)cc4c32)CCO1` [Compound 287, N-1-(trifluoromethyl)cyclopropyl{3-[(2R,4R)-2-methyltetrahydro-2H-pyran-4-yl]-12-cyano-3,5,8-triazatricyclo[7.4.0.0^2,6]trideca-1,4,6,8,10,12-hexaen-4-yl}acetamide] the IC50 (LRRK2 wild type enzyme) was 1.61 nM and the IC50 [1] was 118 nM.
Work on `C[C@@H]1C[C@H](n2c(C3CN(S(=O)(=O)C4CC4)C3)nc3cnc4ccc(C#N)cc4c32)CCO1` [Compound 66, 2-[1-(cyclopropanesulfonyl)azetidin-3-yl]-1-[(2R,4R)-2-methyloxan-4-yl]-1H-imidazo[4,5-c]quinoline-8-carbonitrile] yielded an IC50 (LRRK2 wild type enzyme) of 3.35 nM and an IC50 [1] of 525 nM.
For `C[C@@H]1C[C@H](n2c(CC(=O)Nc3ccn(CCO)n3)nc3cnc4ccc(C#N)cc4c32)CCO1` [Compound 175, 2-{8-cyano-1-[(2R,4R)-2-methyloxan-4-yl]-1H-imidazo[4,5-c]quinolin-2-yl}-N-[1-(2-hydroxyethyl)-1H-pyrazol-3-yl]acetamide], the IC50 (LRRK2 wild type enzyme) was 0.32 nM and the IC50 [1] was 132 nM.
Molecule `C[C@@H]1C[C@H](n2c(CC(=O)Nc3cc(C(F)(F)F)no3)nc3cnc4ccc(C#N)cc4c32)CCO1` [Compound 342, N-[3-(trifluoromethyl)-5-isoxazolyl]{3-[(2R,4R)-2-methyltetrahydro-2H-pyran-4-yl]-12-cyano-3,5,8-triazatricyclo[7.4.0.0^2,6]trideca-1(9),2(6),4,7,10,12-hexaen-4-yl}acetamide] has an IC50 (LRRK2 wild type enzyme) of 2.17 nM and an IC50 [1] of 75.1 nM.
In the case of `Cc1nnc(CNC(=O)Cc2nc3cnc4ccc(C#N)cc4c3n2[C@@H]2CCO[C@H](C)C2)o1` [Compound 257, N-[(5-methyl-1,3,4-oxadiazol-2-yl)methyl]{3-[(2R,4R)-2-methyltetrahydro-2H-pyran-4-yl]-12-cyano-3,5,8-triazatricyclo[7.4.0.0^2,6]trideca-1(9),2(6),4,7,10,12-hexaen-4-yl}acetamide], the IC50 (LRRK2 wild type enzyme) is reported as 0.451 nM and the IC50 [1] is reported as 97 nM.
`C[C@@H]1C[C@H](n2c(CCC(=O)NCC3CC3)nc3cnc4ccc(C#N)cc4c32)CCO1` [Compound 170, 3-{8-cyano-1-[(2R,4R)-2-methyloxan-4-yl]-1H-imidazo[4,5-c]quinolin-2-yl}-N-(cyclopropylmethyl)propanamide] gave an IC50 (LRRK2 wild type enzyme) of 3.11 nM and an IC50 [1] of 329 nM.
In the case of `Cc1nc(C)c(NC(=O)Cc2nc3cnc4ccc(Cl)cc4c3n2[C@@H]2CCO[C@H](C)C2)c(C)n1` [Compound 217, N-(2,4,6-trimethyl-5-pyrimidinyl){3-[(2R,4R)-2-methyltetrahydro-2H-pyran-4-yl]-12-chloro-3,5,8-triazatricyclo[7.4.0.0^2,6]trideca-1,4,6,8,10,12-hexaen-4-yl}acetamide], the IC50 (LRRK2 wild type enzyme) is reported as 0.294 nM and the IC50 [1] is reported as 5.53 nM.
`C[C@@H]1C[C@H](n2c([C@@H]3CCN(S(C)(=O)=O)C3)nc3cnc4ccc(C#N)cc4c32)CCO1` [Compound 38, 2-[(3R)-1-methanesulfonylpyrrolidin-3-yl]-1-[(2R,4R)-2-methyloxan-4-yl]-1H-imidazo[4,5-c]quinoline-8-carbonitrile] gave an IC50 (LRRK2 wild type enzyme) of 7.3 nM and an IC50 [1] of 772 nM.
`C[C@@H]1C[C@H](n2c(CC(=O)Nc3cnn(C4CC4)c3)nc3cnc4ccc(C#N)cc4c32)CCO1` [Compound 307, N-(1-cyclopropyl-4-pyrazolyl){3-[(2R,4R)-2-methyltetrahydro-2H-pyran-4-yl]-12-cyano-3,5,8-triazatricyclo[7.4.0.0^2,6]trideca-1(13),2(6),4,7,9,11-hexaen-4-yl}acetamide] showed an IC50 (LRRK2 wild type enzyme) of 0.683 nM and an IC50 [1] of 17.2 nM.
For `C[C@@H]1C[C@H](n2c(CNc3ncco3)nc3cnc4ccc(C#N)cc4c32)CCO1` [Compound 11, 1-[(2R,4R)-2-methyloxan-4-yl]-2-{[(1,3-oxazol-2-yl)amino]methyl}-1H-imidazo[4,5-c]quinoline-8-carbonitrile], the IC50 (LRRK2 wild type enzyme) was 4.23 nM and the IC50 [1] was 609 nM.
`CCNC(=O)Cc1nc2cnc3ccc(C#N)cc3c2n1[C@@H]1CCO[C@H](C)C1` [Compound 6, 2-{8-cyano-1-[(2R,4R)-2-methyloxan-4-yl]-1H-imidazo[4,5-c]quinolin-2-yl}-N-ethylacetamide] gave an IC50 (LRRK2 wild type enzyme) of 0.58 nM and an IC50 [1] of 48.7 nM.
`C[C@@H]1C[C@H](n2c(CC(=O)N[C@@H](C)C3CC3)nc3cnc4ccc(C#N)cc4c32)CCO1` [Compound 8, 2-{8-cyano-1-[(2R,4R)-2-methyloxan-4-yl]-1H-imidazo[4,5-c]quinolin-2-yl}-N-[(1S)-1-cyclopropylethyl]acetamide] showed an IC50 (LRRK2 wild type enzyme) of 1.49 nM and an IC50 [1] of 118 nM.
Molecule `CC(C(=O)NCC1CC1)c1nc2cnc3ccc(C#N)cc3c2n1[C@@H]1CCO[C@H](C)C1` (stereo partly drawn) [Compound 369, N-cyclopropylmethyl2-{3-[(2R,4R)-2-methyltetrahydro-2H-pyran-4-yl]-12-cyano-3,5,8-triazatricyclo[7.4.0.0^2,6]trideca-1(13),2(6),4,7,9,11-hexaen-4-yl}propionamide] has an IC50 (LRRK2 wild type enzyme) of 13.8 nM and an IC50 [1] of 801 nM.
Molecule `C[C@@H]1C[C@H](n2c(CC(=O)N[C@H]3CCOC3)nc3cnc4ccc(Cl)cc4c32)CCO1` [Compound 147, 2-{8-chloro-1-[(2R,4R)-2-methyloxan-4-yl]-1H-imidazo[4,5-c]quinolin-2-yl}-N-[(3S)-oxolan-3-yl]acetamide] has an IC50 (LRRK2 wild type enzyme) of 0.386 nM and an IC50 [1] of 10 nM.
Molecule `COc1ncc(NC(=O)Cc2nc3cnc4ccc(C#N)cc4c3n2[C@@H]2CCO[C@H](C)C2)c(C2CC2)n1` [Compound 278, N-(4-cyclopropyl-2-methoxy-5-pyrimidinyl){3-[(2R,4R)-2-methyltetrahydro-2H-pyran-4-yl]-12-cyano-3,5,8-triazatricyclo[7.4.0.0^2,6]trideca-1,4,6,8,10,12-hexaen-4-yl}acetamide] has an IC50 (LRRK2 wild type enzyme) of 0.418 nM and an IC50 [1] of 2 nM.
Work on `CNC(=O)Cc1nc2cnc3ccc(C#N)cc3c2n1[C@@H]1CCO[C@H](C)C1` [Compound 82, 2-{8-cyano-1-[(2R,4R)-2-methyloxan-4-yl]-1H-imidazo[4,5-c]quinolin-2-yl}-N-methylacetamide] yielded an IC50 (LRRK2 wild type enzyme) of 0.83 nM and an IC50 [1] of 81.8 nM.
Work on `C[C@@H]1C[C@H](n2c(CC(=O)NCC(F)(F)F)nc3cnc4ccc(C#N)cc4c32)CCO1` [Compound 186, 2-{8-cyano-1-[(2R,4R)-2-methyloxan-4-yl]-1H-imidazo[4,5-c]quinolin-2-yl}-N-(2,2,2-trifluoroethyl)acetamide] yielded an IC50 (LRRK2 wild type enzyme) of 0.556 nM and an IC50 [1] of 43.9 nM.
`C[C@@H]1C[C@H](n2c(CC(=O)Nc3ccnn3C3COC3)nc3cnc4ccc(C#N)cc4c32)CCO1` [Compound 345, N-[1-(3-oxetanyl)-5-pyrazolyl]{3-[(2R,4R)-2-methyltetrahydro-2H-pyran-4-yl]-12-cyano-3,5,8-triazatricyclo[7.4.0.0^2,6]trideca-1(9),2(6),4,7,10,12-hexaen-4-yl}acetamide] was tested, and the IC50 (LRRK2 wild type enzyme) was 0.573 nM and the IC50 [1] was 52.6 nM.
With `Cc1nocc1NC(=O)Cc1nc2cnc3ccc(C#N)cc3c2n1[C@@H]1CCO[C@H](C)C1` [Compound 238, N-(3-methyl-4-isoxazolyl){3-[(2R,4R)-2-methyltetrahydro-2H-pyran-4-yl]-12-cyano-3,5,8-triazatricyclo[7.4.0.0^2,6]trideca-1,4,6,8,10,12-hexaen-4-yl}acetamide] the IC50 (LRRK2 wild type enzyme) was 0.415 nM and the IC50 [1] was 7.15 nM.
Molecule `Cc1ncncc1NC(=O)Cc1nc2cnc3ccc(C#N)cc3c2n1[C@@H]1CCO[C@H](C)C1` [Compound 216, N-(4-methyl-5-pyrimidinyl){3-[(2R,4R)-2-methyltetrahydro-2H-pyran-4-yl]-12-cyano-3,5,8-triazatricyclo[7.4.0.0^2,6]trideca-1,4,6,8,10,12-hexaen-4-yl}acetamide] has an IC50 (LRRK2 wild type enzyme) of 0.422 nM and an IC50 [1] of 12.4 nM.
